Assay results taken from publication PMC8069289 (Molecules, 2021).
“And” between values parts separate entries of the source, which are not always exact repeats. Equal entries are not always repeated.

Tests used:
Drosophila melanogaster [1] = assay: Genotoxicity, wing spot test (SMART); details: H2O2 0.15 M, positive control
Experimental: The wing spot test was performed to evaluate genotoxicity assays following the standard procedure [14]. Briefly, trans-heterozygous larvae for mwh and flr^3 genes were obtained by crossing four day-old virgin flr^3 females with mwh males in a 2:1 ratio. Four days after fertilization, females were allowed to lay eggs in fresh yeast medium (25 g yeast and 4 mL sterile distilled water) for 8 h in order to obtain synchronized larvae. After 72 h, larvae were collected, washed with distilled water, and clustered in groups of 100 individuals. […] Adult flies were collected and stored in 70% ethanol until the wings were removed and mounted on slides using Faure’s solution. Mutant spots were assessed in both dorsal and ventral surfaces of the wings in a bright light microscope at 400× magnification. The frequencies of each type of mutant clone per wing (single, large or twin spot) were compared with the concurrent negative control [43]. All inconclusive and positive results (p > 0.05) were analysed with the nonparametric U-test of Mann, Whitney and Wilcoxon (α = β = 0.05).

Drosophila melanogaster [2] = assay: Antitoxicity assay, combined treatment with 0.15 M H2O2; details: 0.15 M hydrogen peroxide alone, positive toxicant control concurrent to each test substance
Experimental: Toxicity was assayed according to our standard protocols. CRB and SFRB were tested at five concentrations: 1, 4, 8.12, 32.5 and 130 mg/mL and 0.16, 0.625, 1.25, 5 and 20 mg/mL, respectively. […] Tested groups consisted of larvae fed with Drosophila Instant Medium (Formula 4–24, Carolina Biological Supply, Burlington, NC, USA) supplemented with the assessed compounds concentrations. Emerging adults of all groups were counted and toxicity was determined as the percentage of hatched individuals in each treatment compared with the negative control.

## OO [H2O2, hydrogen peroxide, reference compound]
Drosophila melanogaster [1]
  Twin Spots m = 5: 0 clones per wing
Drosophila melanogaster [1]; No. of spots in parentheses
  Large Simple Spots (>2 Cells) m = 5: 0.05 (2) clones per wing
  Small Single Spots (1–2 Cells) m = 2: 0.375 (15) clones per wing
  Total Spots m = 2: 0.425 (17) clones per wing
Drosophila melanogaster [2]
  Survival (%): 60% and 38.46% and 58%
